{
  "source": "patent US20230292743A1",
  "about": "“Method for increasing the lifespan and motility of animal sperm using an inhibitor of Slo3 potassium channel” (IMV TECHNOLOGIES, priority 2017, published 2023)",
  "key": {"[1]": {"tested_on": "bovine sperm", "experiment": "Ability of frozen-thawed bovine capacitated sperm to fertilize oocytes after 24 h incubation in sp-TALP (2-cell embryos, blastocysts)", "type": "cell-based", "conditions": "0.2 μM clofilium in sp-TALP 24 h prior fertilization, vs control 24 h", "method": "Bovine sperm was obtained by ejaculation. Ejaculate was diluted 1:1 in Optixcell. After 10 minutes of 34° C. incubation, semen was then diluted to a final concentration of 57 million of spermatozoa/mL in Optixcell. Optixcell is a TRIS citrate buffer containing liposomes extruded from egg yolk lecithins, glycerol and antibiotics described by CEE (Directive 88/407/CEE). Diluted semen was slowly cooled down to 4° C. (3 to 4 h equilibration in a tempered water-bath), 0.25 mL straws were filled and then frozen in a controlled rate freezer at a cooling rate of 5° C./min from 4° C. to −10° C., 40° C./min from −10° C. to −110° C., 15° C./min from −110° C. to […]. Straws were then stored in liquid nitrogen until in vitro fertilization. Straws were thawed in a water-bath at 37° C. for 45 s. Each straw was wiped with 70° ethanol before being opened. […] Sperm concentration was measured and 750 000 sperm cells are injected into a fertilization droplet (500 μL) containing oocytes bathing in fertilization medium. […] Sperm (1.5 M/mL) and cumulus oocyte complexes (COCs) co-culture were performed at 38.5° C. under gaseous atmosphere of 5% v/v CO2 and saturated humidity for 48 h and then fertilization outcome was assessed. […] Cleavage rate assessed at 48 h and blastocyst rate at day 9 post-fertilization. […]"}, "[2]": {"tested_on": "bovine sperm", "experiment": "In vitro fertilization with bovine sperm frozen with clofilium, washed or not washed after thawing", "type": "cell-based", "conditions": "bovine sperm frozen with 0.2 μM clofilium, vs control", "method": "In order to be as close as possible of the possible field usage, sperm were frozen with clofilium prior to test their ability to improve fertilization. Two conditions were tested: in the first one, clofilium was present during the sperm incubation period, and in the second one, sperm was washed to remove clofilium in order to mimic the condition that may occur in the female reproductive tract. Straws containing clofilium were obtained as described below. Bovine ejaculate was split into two fractions, and diluted 1:1 in either Optixcell (Fraction 1) or Optixcell containing clofilium 0.2 μM (Fraction 2). After 10 minutes of 34° C. incubation, semen was then diluted to a final concentration of 57 million of spermatozoa/ml in Optixcell (Fraction 1) or Optixcell containing clofilium 0.2 μM (Fraction 2). Diluted semen was frozen as described above and stored in liquid nitrogen until in vitro fertilization. Two types of straws were used: control straws and straws containing clofilium. For straws containing clofilium, two conditions were tested: washed and not washed. The wash medium is a commonly used medium, sp-TALP, for bovine sperm handling and which composition is described above. For “not washed” conditions, sperm were incubated with sp-TALP containing 0.2 μM clofilium. […]"}},
  "data": [
    {"molecule": "CCCCCCC[N+](CC)(CC)CCCCc1ccc(Cl)cc1", "note": "[clofilium]", "values": [
      {"measurement": "percentage of blastocysts vs matured oocytes 9 days after fertilization", "setting": "[1]", "result": "improves the yield of bovine blastocysts"},
      {"measurement": "percentage of 2-cell embryos vs matured oocytes at 24 h post fertilization", "setting": "[2]; not washed (clofilium present in sp-TALP), up to 48 h incubation", "result": "positive effect on embryo outcome lasted 48 hours"},
      {"measurement": "percentage of 2-cell embryos vs matured oocytes at 24 h post fertilization", "setting": "[2]; washed clofilium, 24 h incubation in sp-TALP", "result": "positive effect at 24 hours is still present, although lower"},
      {"measurement": "percentage of 2-cell embryos vs matured oocytes at 24 h post fertilization", "setting": "[2]; washed clofilium, 48 h incubation in sp-TALP", "result": "the effect is no longer present"}
    ]}
  ]
}
